Toxic doses and inconclusive results are not listed. Non-standard residues stand in square brackets, D forms with d. Residues, ends and D or L forms follow the SMILES beside them. *: point of attachment. Nle = CCCC[CH](N)C(=O)O; Cbz = O=C(OCc1ccccc1)*; OBn = c1ccc(CO*)cc1
System: BDF1 mice, P388 leukemia ip, median survival T/C
Test: NCI In Vivo Anticancer Drug Screen. Data for tumor model P388 Leukemia (intraperitoneal) in B6D2F1 (BDF1) mice
Conditions: endpoint: median survival time, higher = longer survival
Method in brief: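 Compound-treated tumour-bearing mice were compared with vehicle-treated controls. Survival was recorded, and the value is the treated-group measurement divided by the control-group measurement (T/C).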

[1] = dose: 100.0 mg/kg/injection, schedule: Q01DX009 (ip), vehicle: saline with Tween-80
[2] = dose: 100.0 mg/kg/injection, schedule: Q04DX003 (ip), vehicle: saline with Tween-80
[3] = dose: 200.0 mg/kg/injection, schedule: Q01DX009 (ip), vehicle: saline with Tween-80
[4] = dose: 200.0 mg/kg/injection, schedule: Q04DX003 (ip), vehicle: saline with Tween-80
[5] = dose: 400.0 mg/kg/injection, schedule: Q01DX009 (ip), vehicle: saline with Tween-80
[6] = dose: 400.0 mg/kg/injection, schedule: Q04DX003 (ip), vehicle: saline with Tween-80
[7] = dose: 50.0 mg/kg/injection, schedule: Q01DX009 (ip), vehicle: saline with Tween-80
[8] = dose: 100.0 mg/kg/injection, schedule: Q01DX009 (ip), vehicle: Klucel (hydroxypropylcellulose) (HPC)
[9] = dose: 100.0 mg/kg/injection, schedule: Q04DX003 (ip), vehicle: Klucel (hydroxypropylcellulose) (HPC)
[10] = dose: 200.0 mg/kg/injection, schedule: Q01DX009 (ip), vehicle: Klucel (hydroxypropylcellulose) (HPC)
[11] = dose: 200.0 mg/kg/injection, schedule: Q04DX003 (ip), vehicle: Klucel (hydroxypropylcellulose) (HPC)
[12] = dose: 400.0 mg/kg/injection, schedule: Q01DX009 (ip), vehicle: Klucel (hydroxypropylcellulose) (HPC)
[13] = dose: 400.0 mg/kg/injection, schedule: Q04DX003 (ip), vehicle: Klucel (hydroxypropylcellulose) (HPC)
[14] = dose: 50.0 mg/kg/injection, schedule: Q01DX009 (ip), vehicle: Klucel (hydroxypropylcellulose) (HPC)
[15] = dose: 50.0 mg/kg/injection, schedule: Q01DX005 (ip), vehicle: saline with Tween-80
[16] = dose: 100.0 mg/kg/injection, schedule: Q01DX005 (ip), vehicle: saline with Tween-80
[17] = dose: 200.0 mg/kg/injection, schedule: Q01DX005 (ip), vehicle: saline with Tween-80
[18] = dose: 50.0 mg/kg/injection, schedule: Q01DX009 (ip), vehicle: other
[19] = dose: 100.0 mg/kg/injection, schedule: Q01DX009 (ip), vehicle: other
[20] = dose: 25.0 mg/kg/injection, schedule: Q01DX009 (ip), vehicle: saline
[21] = dose: 50.0 mg/kg/injection, schedule: Q01DX009 (ip), vehicle: saline
[22] = dose: 50.0 mg/kg/injection, schedule: Q04DX003 (ip), vehicle: saline
[23] = dose: 100.0 mg/kg/injection, schedule: Q04DX003 (ip), vehicle: saline
[24] = dose: 25.0 mg/kg/injection, schedule: Q01DX009 (ip), vehicle: saline with Tween-80
[25] = dose: 200.0 mg/kg/injection, schedule: Q04DX003 (ip), vehicle: saline
[26] = dose: 50.0 mg/kg/injection, schedule: Q01DX001 (ip), vehicle: saline
[27] = dose: 100.0 mg/kg/injection, schedule: Q01DX001 (ip), vehicle: saline

For `CS(=O)(=O)N(c1ccccc1[N+](=O)[O-])S(C)(=O)=O`, the T/C [1] was 109 % of control, the T/C [2] was 87 % of control and the T/C [3] was 100 % of control. For the same compound, the T/C [4] was 100 % of control, the T/C [5] was 104 % of control and the T/C [6] was 104 % of control.

In the case of `O=[N+]([O-])c1ccc(NS(=O)(=O)c2cc(Cl)ccc2Cl)c([N+](=O)[O-])c1`, the T/C [7] was 105 % of control, the T/C [1] was 102 % of control and the T/C [3] was 110 % of control.

With `O=[N+]([O-])c1cc(Br)c(N2CCCC2)cc1N1CCCC1` the T/C [8] was 104 % of control, the T/C [9] was 100 % of control and the T/C [10] was 100 % of control. The T/C [11] was 95 % of control, the T/C [12] was 100 % of control and the T/C [13] was 110 % of control.

For `C1=CC23C4CCC2C2C4C4C(=C1)C3C2N1CCCCC41` (stereo not drawn), the T/C (dose: 12.5 mg/kg/injection, schedule: Q01DX009 (ip), vehicle: Klucel (hydroxypropylcellulose) (HPC)) was 104 % of control, the T/C (dose: 25.0 mg/kg/injection, schedule: Q01DX009 (ip), vehicle: Klucel (hydroxypropylcellulose) (HPC)) was 100 % of control and the T/C (dose: 37.5 mg/kg/injection, schedule: Q04DX003 (ip), vehicle: Klucel (hydroxypropylcellulose) (HPC)) was 91 % of control. The T/C [14] was 100 % of control and the T/C (dose: 75.0 mg/kg/injection, schedule: Q04DX003 (ip), vehicle: Klucel (hydroxypropylcellulose) (HPC)) was 100 % of control.

With `CCCCC(NC(=O)C1CCCN1C(=O)OCc1ccccc1)C(=O)OCc1ccccc1` (stereo not drawn) (Cbz-Pro-[Nle]-OBn; configuration not given here) the T/C [15] was 88 % of control, the T/C [16] was 101 % of control and the T/C [17] was 97 % of control.

In the case of `C[n+]1c2ccccc2c(Nc2ccc(NS(=O)(=O)CCCCN=C(N)N)cc2)c2ccc(N)cc21`, the T/C (dose: 3.0 mg/kg/injection, schedule: Q01DX009 (ip), vehicle: water) was 205 % of control and the T/C (dose: 6.0 mg/kg/injection, schedule: Q01DX009 (ip), vehicle: water) was 116 % of control.

For `CN(Cc1ccc(Nc2ccccc2)cc1)C1CCCCC1`, the T/C [18] was 113 % of control and the T/C [19] was 160 % of control.

`CN(C)c1ccc(C=C(C#N)C#N)cc1` was tested, and the T/C [9] was 100 % of control, the T/C [10] was 90 % of control and the T/C [11] was 100 % of control. The T/C [12] was 113 % of control and the T/C [13] was 90 % of control.

In the case of `Clc1ncnc2c1ncn2C1CCCCO1` (stereo not drawn), the T/C [20] was 90 % of control, the T/C [21] was 100 % of control and the T/C [19] was 92 % of control. The T/C (dose: 100.0 mg/kg/injection, schedule: Q01DX009 (ip), vehicle: saline) was 95 % of control, the T/C (dose: 100.0 mg/kg/injection, schedule: Q04DX003 (ip), vehicle: other) was 108 % of control and the T/C (dose: 200.0 mg/kg/injection, schedule: Q04DX003 (ip), vehicle: other) was 108 % of control. For the same compound, the T/C (dose: 400.0 mg/kg/injection, schedule: Q01DX009 (ip), vehicle: other) was 115 % of control and the T/C (dose: 400.0 mg/kg/injection, schedule: Q04DX003 (ip), vehicle: other) was 108 % of control.

For `CN(C)c1ccc(/C=C/c2ccncc2)cc1`, the T/C (dose: 3.13 mg/kg/injection, schedule: Q01DX009 (ip), vehicle: saline with Tween-80) was 115 % of control.

With `CN(N=O)c1ccc(N(C)N=O)cc1` the T/C [14] was 95 % of control, the T/C [8] was 95 % of control and the T/C [9] was 95 % of control. The T/C [10] was 90 % of control, the T/C [11] was 105 % of control and the T/C [13] was 95 % of control.

For `N=C(N)SCc1ccc(C(=O)Oc2ccc([N+](=O)[O-])cc2)cc1`, the T/C [20] was 104 % of control, the T/C [21] was 90 % of control and the T/C [22] was 110 % of control. The T/C [23] was 110 % of control.

In the case of `CCOCCC(O)CC` (stereo not drawn), the T/C (dose: 178.0 mg/kg/injection, schedule: Q04DX003 (ip), vehicle: saline) was 100 % of control, the T/C (dose: 266.0 mg/kg/injection, schedule: Q04DX003 (ip), vehicle: saline) was 100 % of control and the T/C (dose: 400.0 mg/kg/injection, schedule: Q04DX003 (ip), vehicle: saline) was 100 % of control.

`CCS(=O)(=O)OC1CCCCCCC1NC(=O)c1ccccc1` (stereo not drawn) was tested, and the T/C [24] was 95 % of control, the T/C [7] was 109 % of control and the T/C [1] was 104 % of control.

In the case of `CC(=O)CSc1nc2nccnc2[nH]1`, the T/C [24] was 111 % of control, the T/C (dose: 25.0 mg/kg/injection, schedule: Q04DX003 (ip), vehicle: saline with Tween-80) was 97 % of control and the T/C [7] was 111 % of control. For the same compound, the T/C (dose: 50.0 mg/kg/injection, schedule: Q04DX003 (ip), vehicle: saline with Tween-80) was 108 % of control, the T/C [1] was 106 % of control and the T/C [2] was 97 % of control. The T/C [3] was 106 % of control, the T/C [4] was 105 % of control and the T/C [5] was 103 % of control. For the same compound, the T/C [6] was 100 % of control.

With `CC(N)(/C=C/c1ccccc1)C(=O)O` (stereo not drawn) the T/C [15] was 101 % of control, the T/C [16] was 97 % of control and the T/C [17] was 113 % of control.

`CN(C)CCCNC(CC#N)CCC#N` (stereo not drawn) was tested, and the T/C [22] was 100 % of control, the T/C [23] was 109 % of control and the T/C [25] was 100 % of control.

In the case of `O=[N+]([O-])c1cccc(/C=C/c2cc(N(CCO)CCO)c3ccccc3n2)c1`, the T/C [7] was 91 % of control, the T/C [1] was 89 % of control and the T/C [3] was 94 % of control.

`C[N+](C)(C)CCC[n+]1ccc(CCn2ccc3ccccc32)cc1` was tested, and the T/C (dose: 25.0 mg/kg/injection, schedule: Q01DX001 (ip), vehicle: saline) was 100 % of control, the T/C [26] was 105 % of control and the T/C [27] was 105 % of control.

With `O=S1(=O)CC(N2CCCCC2)C2=C(CCN(c3ccccc3)C2)O1` (stereo not drawn) the T/C (dose: 100.0 mg/kg/injection, schedule: Q04DX002 (ip), vehicle: saline with Tween-80) was 112 % of control, the T/C (dose: 200.0 mg/kg/injection, schedule: Q04DX002 (ip), vehicle: saline with Tween-80) was 95 % of control and the T/C (dose: 400.0 mg/kg/injection, schedule: Q04DX002 (ip), vehicle: saline with Tween-80) was 98 % of control.

With `CCCC(=O)Nc1ccc([N+](=O)[O-])cc1OC` the T/C [1] was 90 % of control, the T/C [3] was 100 % of control and the T/C [5] was 100 % of control.

`CCCCOC(=S)Nc1ccccc1` was tested, and the T/C [18] was 100 % of control and the T/C [19] was 99 % of control.

For `O=S(=O)(F)c1cc(C[P+](c2ccccc2)(c2ccccc2)c2ccccc2)ccc1Cl`, the T/C (dose: 2.0 mg/kg/injection, schedule: Q01DX009 (ip), vehicle: saline with Tween-80) was 109 % of control, the T/C (dose: 8.0 mg/kg/injection, schedule: Q01DX009 (ip), vehicle: Klucel (hydroxypropylcellulose) (HPC)) was 118 % of control and the T/C (dose: 8.0 mg/kg/injection, schedule: Q01DX009 (ip), vehicle: saline + alcohol) was 123 % of control. For the same compound, the T/C (dose: 12.0 mg/kg/injection, schedule: Q01DX009 (ip), vehicle: saline + alcohol) was 115 % of control, the T/C (dose: 18.0 mg/kg/injection, schedule: Q01DX009 (ip), vehicle: saline + alcohol) was 123 % of control and the T/C [24] was 110 % of control.

With `O=C(O)/C=C/c1cc2c(cc1[N+](=O)[O-])OCO2` the T/C [8] was 88 % of control, the T/C [9] was 91 % of control and the T/C [10] was 96 % of control. The T/C [11] was 95 % of control and the T/C [13] was 87 % of control.

With `c1ccc(SCN2CCN(CSc3ccccc3)CC2)cc1` the T/C [26] was 95 % of control and the T/C [27] was 109 % of control.

With `c1ccc(C(NC2CC3CCC2C3)c2ccccc2)cc1` (stereo not drawn) the T/C [22] was 108 % of control, the T/C [23] was 108 % of control and the T/C [25] was 108 % of control.

Source: PubChem BioAssay AID328 (DTP/NCI, 2004)
